Laboratory results as given in patent US11467158B2, “BRCA1 mutations as predictive markers for topoisomerase inhibitions” (BOSTON MEDICAL CENTER CORPORATION, priority 2012, dated 2022).
Entries after “also recorded” stand apart in the source; their conditions may differ. Non-standard residues stand in square brackets, D forms with d. No end group written: not given here. pS = N[C@@H](COP(=O)(O)O)C(=O)O

What was measured:
topo I [1] = assay: topo I degradation in cells (immunoblot with anti-topo I); type: cell-based
Description: (§1) Phosphorylated GST-topo I was incubated with purified E1, UbcH5c (E2), and BRCA1/BARD1 (E3) (lane2). Phosphorylated topo I was also incubated with E1 and UbcH5c (E2) only as control (lane 1). Reactions were carried out in ubiquitination buffer at 37° C. for 30 min. The reaction products were analyzed by immunoblot analysis with anti-ubiquitin. […] Immunoprecipitates were analyzed by immunoblot analysis with anti-ubiquitin. […] Control and treated cells were harvested and lysed. Cell lysates were analyzed by immunoblot analysis with anti-topo I (upper panel) and anti-β-actin (lower panel).
(§2) Cells were harvested after designated time and lysed. The cell lysates were analyzed by immunoblot analysis with anti-topo I (upper panel) and anti-β-actin for equal protein loading (lower panel). An infrared secondary antibody was used and a LICOR system was used to visualize the florescence. […] Immunoprecipitates were analyzed by immunoblot analysis with anti-Pan ubiquitin. […] The cell number was counted after 12 hours using a Celigo system. The cells were treated with 10 and 25 nM SN-38 for 72 hours. The cells were counted again using the Celigo system and growth inhibition was determined using a formula described in the materials and methods section.
(§3) Control and treated cells were harvested and lysed. Cell lysates were analyzed by immunoblot analysis with anti-topo I (upper panel) and anti-β-actin (lower panel). […] Immunoprecipitates were analyzed by immunoblot analysis with anti-ubiquitin.
(§4) To further validate the findings in cells the inventors used BRCA1 E3 ligase deficient HCC1937 cells. The cells are sensitive to DNA-damaging agents and have impaired BRCA1 E3 ligase function. The inventors have used HCC1937 cells and stably expressed BRCA1 (HCC1937-BRCA1) to restore E3 ligase function. Both, HCC1937 and HCC1937-BRCA1 cells were treated with CPT for 60 minutes and drug free for 30 minutes in the presence of MG132. Control and CPT treated cells were lysed and subjected to immunoprecipitation with anti-topoI. The immunoprecipitates were analyzed by immunoblot analysis with anti-ubiquitin. […] Topo I is degraded in the response to CPT by ubiquitin proteosomal pathways, and the rate of degradation at least in part determines anti neoplastic activity of the drug. To determine the correlation between topo I degradation and CPT efficacy in HCC1937 and HCC1937-BRCA cells, were treated with […] and topo I degradation (FIG. 2C) and cell growth inhibition assays were performed (FIG. 2D).
(§5) To understand the topo I ubiquitination and CPT response, based on the inventors previous early screen, the inventors selected four triple negative breast cancer cell lines with differential rate of UPP mediated topo I degradation. […] To determine the level of CPT induced ubiquitination, control and treated cells were lysed and cell lysates were subjected to immunoprecipitation with anti-topoI. The immunoprecipitates were analyzed by immunoblot analysis with anti-ubiquitin. […] To understand the possible correlation between ubiquitination dependent topo I degradation and CPT response, cells were treated with different concentration of SN-38 and analyzed for percent growth inhibition. […] The highest percent of growth inhibition was detected in BT20 (FIG. 3C). Taken together, rate of topo I degradation by UPP determines the drug sensitivity in triple negative breast cancer cells.

HCC1937 cells = assay: percent cell growth inhibition after 72 hours (Celigo); type: cell-based
Description: as §1, §3, §4

HCC1937-BRCA1 cells = assay: as above; type: cell-based
Description: as §1, §3, §4

topo I [2] = assay: topo I ubiquitination in cells (anti-topoI immunoprecipitation, anti-ubiquitin immunoblot); type: cell-based
Description: as §1, §2, §3, §4, §5

Walker 256 tumor = conditions: experimentally transplanted Walker 256 tumor in rats; cited from earlier work
[3] = test system: biosynthesis of nucleic acids; conditions: cited from earlier work
leukemia L-1210 = conditions: experimentally transplanted leukemia L-1210 in mice; cited from earlier work
SUM52 cells = assay: TNBC cell growth inhibition, 72 hours (Celigo); type: cell-based; conditions: 10 and 25 nM
Description: as §2, §5

BT549 cells = assay: TNBC cell growth inhibition, 72 hours (Celigo); type: cell-based
Description: as §2, §5

BT20 cells = assay: TNBC cell growth inhibition, 72 hours (Celigo); type: cell-based
Description: as §2, §5

MDAMB231 cells = assay: TNBC cell growth inhibition, 72 hours (Celigo); type: cell-based
Description: as §2, with “The cells were treated with 10 and 25 nM SN-38 for 72 hours.” left out
as §5, with “Taken together, rate of topo I degradation by UPP determines the drug sensitivity in triple negative breast cancer cells.” left out

HIV-1 = conditions: acute and chronic infections, in vitro; cited from earlier work
BRCA1-BRCT domain = biological target: T1, BRCA1-BRCT domain (Homo sapiens, UniProt P38398); assay: fluorescence polarization of Topo I phosphopeptide with GST-BRCT; type: binding; conditions: peptide labeled with Alexa Fluor 532, final dilution 1:1000 or 1:500, varying GST-BRCT concentrations
T1 construct: made in house; host or cells: E. coli Rosetta (DE3) pLysS (Novagen)
T1 sequence (P38398 1650-1863): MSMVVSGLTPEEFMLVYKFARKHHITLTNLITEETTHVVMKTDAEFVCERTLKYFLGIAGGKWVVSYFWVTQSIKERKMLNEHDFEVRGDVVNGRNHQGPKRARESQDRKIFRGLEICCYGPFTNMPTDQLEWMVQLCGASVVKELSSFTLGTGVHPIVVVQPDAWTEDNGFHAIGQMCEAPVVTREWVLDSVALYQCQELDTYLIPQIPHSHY
Description: Phosphopeptide labeled with Alexa Fluor 532 was incubated at a final dilution of either 1:1000 or 1:500 with varying concentrations of GST-BRCT or buffer alone. Polarization of the light emitted by the labeled peptide was detected on a Tecan Infinite M1000 pro and is plotted as a function of protein concentration.
An exemplary assay to identify a mutation in the BRCT domain which decreases the binding affinity of the BRCT domain for the phospho-ser10-topo I polypeptide was performed as follows (see FIG. 8): Topo I phosphopeptide NDpSQIEADFRLNDC (SEQ ID NO: 4) was conjugated to Alexa Fluor 532 (Invitrogen) via maleimide reaction with the C-terminal cysteine, as per manufacturer's protocol. Labeled peptide was separated from the reaction mixture by RP-HPLC using C-18 media and eluted with 30% acetonitrile. The partially purified peptide was lyophilized and resuspended in TBS with 1 mM DTT. GST-BRCT was expressed in Rosetta (DE3) pLysS (Novagen) and purified by standard methods. The purified protein was eluted from the GS beads and dialyzed against TBS containing 1 mM DTT and 5% glycerol prior to storage at −80°. […] 20 μl from each dilution was then transferred to each of 4 wells in a 384-well black plate, and FP was read on a Tecan Infinite M1000 pro and plotted as mP as a function of protein concentration.

For `CC[C@@]1(O)C(=O)OCc2c1cc1n(c2=O)Cc2cc3ccccc3nc2-1` [CPT, camptothecin], the “topo I degradation” value (topo I [1]; BT20 cells, in 2 hours) was “not appreciably degraded”, the “topo I degradation” value (topo I [1]; BT549 cells, in 2 hours) was “not appreciably degraded” and the “topo I degradation” value (topo I [1]; HCC1937-BRCA1 cells) was “degrades topo I”. For the same compound, the “topo I degradation” value (topo I [1]; HCC1937 cells) was “fails to ubiquitinate and degrade topo I”, the “time in which topo I was degraded” value (topo I [1]; MDAMB231 cells) was ≤ 2 h and the “time in which topo I was degraded” value (topo I [1]; SUM52 cells) was ≤ 2 h. The “cell growth inhibition (sensitivity to the drug)” value (“cell growth inhibition” below) (HCC1937 cells) was “highly sensitive”, the “cell growth inhibition” value (HCC1937-BRCA1 cells) was “resistant” and the “topo I ubiquitination” value (topo I [2]; BT20 cells) was “no ubiquitination”. The “topo I ubiquitination” value (topo I [2]; BT549 cells) was “no ubiquitination”, the “topo I ubiquitination” value (topo I [2]; HCC1937 cells (BRCA1 E3 ligase deficient), treated 60 minutes, drug free 30 minutes, MG132) was “No ubiquitination; also recorded: fail to ubiquitinate topo I; also recorded: fails to ubiquitinate and degrade topo I” and the “topo I ubiquitination” value (topo I [2]; MDAMB231 cells) was “ubiquitinated”. The “topo I ubiquitination” value (topo I [2]; SUM52 cells) was “ubiquitinated”, the anti-tumor activity (Walker 256 tumor) was “potent anti-tumor activity” and the “inhibitory activity toward the biosynthesis of nucleic acids” value [3] was “strong inhibitory activity”. The anti-tumor activity (leukemia L-1210) was “potent anti-tumor activity”.
With `CCc1c2c(nc3ccc(O)cc13)-c1cc3c(c(=O)n1C2)COC(=O)[C@]3(O)CC` [SN-38] the “percent growth inhibition (compared among four TNBC cell lines)” value (SUM52 cells) was “least”, the “sensitivity to the drug (growth inhibition)” value (BT549 cells) was “very sensitive” and the “percent growth inhibition (compared among four TNBC cell lines)” value (BT20 cells; BT20 cells) was “highest”. For the same compound, the “sensitivity to the drug (growth inhibition)” value (BT20 cells; BT20 cells (printed BT2020)) was “very sensitive”, the “topo I degradation” value (topo I [1]; HCC1937-BRCA1 cells) was “degrade topo I” and the “topo I degradation” value (topo I [1]; HCC1937 cells) was “do not degrade topo I”. For the same compound, the “cell growth inhibition” value (HCC1937 cells) was “sensitive”, the “cell growth inhibition” value (HCC1937-BRCA1 cells) was “sensitive” and the “topo I ubiquitination” value (topo I [2]; HCC1937-BRCA1 cells (wild type BRCA1 restored), treated 60 minutes, drug free 30 minutes, MG132) was “pronounced topo I ubiquitination”. The “cell growth under drug” value (MDAMB231 cells; 50 nM) was “cells were growing” and the “sensitivity to the drug (growth inhibition)” value (MDAMB231 cells; 72 hours) was “remained resistant”.
In the case of `CC[C@@]1(O)C(=O)OCc2c1cc1n(c2=O)Cc2cc3c(CN(C)C)c(O)ccc3nc2-1` [Topotecan], the “inhibition of HIV-1 infection” value (HIV-1) is listed as “inhibit both acute and chronic HIV-1 infections”.
With “NDpSQIEADFRLNDC (SEQ ID NO: 4) (ND[pS]QIEADFRLNDC; listed as Homo sapiens) [Topo I phosphopeptide, topo I phosphopeptide with phosphorylated S10]” the “binding to GST-BRCT (fluorescence polarization)” value (BRCA1-BRCT domain) was “direct interaction” and the “binding to GST-BRCT (fluorescence polarization)” value (BRCA1-BRCT domain; listed as topo I phosphopeptide) was “binds directly”.
